By AUC(0-inf) is commonly meant the area under the concentration-time curve extrapolated to infinity. Broadly, the AUC(0-t) is exposure summed from dosing to a finite time, without extrapolation to infinity. As usually defined, the Cmax is the highest concentration seen after dosing. For orientation: Tmax means the time at which the peak concentration occurs.

Bounds are passed on as bounds.

The text below walks through data of US10039779B2, “Combination formulation of two antiviral compounds” (priority 2013, dated 2018).

Data set [1] in a line: pH-solubility profile and solubility in simulated intestinal media. The conditions noted are these: aqueous, neutral form (pH>5), room temperature. The format is physicochemical. The method, then: Excess solid ledipasvir was added to a range of pH-adjusted aqueous solutions (titrated with HCl or NaOH) and stirred for 48 hours at room temperature. The suspensions were then filtered through regenerated cellulose syringe filters. The pH value of the supernatant was measured, and the supernatant was diluted as appropriate with 50:50 H2O+0.1% TFA:ACN and assayed for ledipasvir content by the HPLC-UV method.
Solubility of ledipasvir amorphous free base was assessed in three types of simulated intestinal fluids at pH 6.5 or pH 5.0; and simulated intestinal bile salt and lecithin mixture (SIBLM), pH 6.4. Excess solid ledipasvir was added to the respective SIFs and stirred for 48 hours at room temperature. The resulting suspensions were then filtered through regenerated cellulose syringe filters. The supernatant was diluted as appropriate with 50:50 H2O+0.1% TFA:ACN and assayed for ledipasvir content by the HPLC-UV method.

Data set [2] in a line: Aqueous solubility with 0.1% w/w surfactants and polymers; dissolution behavior of forms. Format: physicochemical. The conditions noted are these: aqueous buffered solutions. The method, then:
Excess solid was added to aqueous buffered solutions; samples were withdrawn at predetermined intervals (2, 5, 8, 10, 15, 20, 30, 45, 60 minutes, and 24 hours), filtered through regenerated cellulose filters, and diluted for concentration measurement by the HPLC-UV method.

Data set [3] in a line: Compatibility/stability of sofosbuvir and ledipasvir:copovidone solid dispersion blend. The format is physicochemical. The conditions noted are these: for Strength / Total Impurity Content: blend pellets, open glass vials. The method, then:
The compatibility of sofosbuvir anhydrous crystalline drug substance was evaluated with the ledipasvir:copovidone solid dispersion. A blend of the sofosbuvir and ledipasvir:copovidone (1:1) solid dispersion was prepared at a ratio representative of the final 400 mg sofosbuvir/90 mg ledipasvir tablets. […]

Data set [4] is described as follows: PK of Sofosbuvir/Ledipasvir tablets fasted or with meals.
For the next data set, the system named is HCV. In words: Dose selection: antiviral response and Emax PK/PD modeling. Format: in vivo, Hepatitis C virus. How it is done: The sofosbuvir dose selected for the tablet formulation is 400 mg once daily. Support for the 400 mg sofosbuvir dose can be derived from Emax PK/PD modeling with early virological and human exposure data which also supports the selection of a 400 mg sofosbuvir dose over others tested.
The mean sofosbuvir major metabolite AUCtau for the 400 mg sofosbuvir dose is associated with approximately 77% of the maximal HCV RNA change from baseline achievable as determined by this model, a value which is on the cusp of the plateau of the exposure-response sigmoidal curve. […] Therefore, given that sofosbuvir exposure with 200 mg tablets appears dose-proportional with single doses up to 1200 mg, doses below 400 mg are expected to yield considerable reductions in the magnitude of HCV RNA change from baseline.
The sofosbuvir dose of 400 mg once daily was associated with higher SVR rates in genotype 1 HCV infected patients as compared to the 200 mg once daily dose when given in conjunction with additional HCV therapeutics for 24 weeks. Safety and tolerability appeared similar across both dose levels. In addition, when sofosbuvir 400 mg once daily plus other HCV therapeutics were given to genotype 2 or 3 HCV infected patients, 100% SVR24 was observed.
The maximum median HCV RNA log 10 reduction was 3 or greater for all cohorts dosed with ≥3 mg of ledipasvir. […] Therefore, 30 mg and 90 mg of ledipasvir were selected as the dose for the formulations described herein.
Therefore, the 90 mg dose of ledipasvir may confer a greater antiviral coverage that prevents viral breakthrough.

Data set [5] can be described thus: PK of sofosbuvir alone or with Compound E (and ledipasvir). Format: in vivo. The conditions noted are these: for AUC(0-inf) / AUC(0-t) / Cmax: human, in vivo, n = 18, mean (% CV). How it is done: Subjects (n=18) received single doses of sofosbuvir (400 mg) alone or in combination with Compound E (500 mg QD) under fed conditions.
Data set [6] is described as follows: Pharmacokinetics of sofosbuvir and ledipasvir alone or in combination. The format is in vivo. The conditions noted are these: for AUC(0-inf) / AUC(0-t) / Cmax: po, plasma analyte, n = 17, mean (% CV).
Another data set can be described thus: clinical. The conditions noted are these: in vivo; for AUC(0-inf) / AUC(0-t) / Cmax: po, plasma analyte, Sofosbuvir/Ledipasvir Tablet, n = 29, mean (% CV); for AUC(0-inf): AUCinf; for AUC(0-t): AUClast.
[7] abbreviates: listed as Ledipasvir crystalline free base Form III.
Where [8] appears, read: SOF + Compound E + ledipasvir vs SOF alone.
The mark [9] stands for this setting: po, 400 mg, SOF + Compound E (500 mg QD), fed.
Where [10] appears, read: po, 400 mg, SOF alone (400 mg single dose, fed).
Setting [11] is: Sofosbuvir + Ledipasvir vs single agent alone.
Where [12] appears, read: in vivo, Sofosbuvir + Ledipasvir.

For `COC(=O)N[C@H](C(=O)N1CC2(CC2)C[C@H]1c1ncc(-c2ccc3c(c2)C(F)(F)c2cc(-c4ccc5nc([C@@H]6[C@H]7CC[C@H](C7)N6C(=O)[C@@H](NC(=O)OC)C(C)C)[nH]c5c4)ccc2-3)[nH]1)C(C)C` [Ledipasvir Form III], the “intrinsic solubility (S0)” value in data set [1] (setting [7]) is below 0.1 µg/mL. Moreover, in data set [2] (setting [7]), the “dissolution behavior relative to other ledipasvir forms” value is “dissolves more slowly than the amorphous free base, but faster than ledipasvir-03”.

Take `COC(=O)N[C@H](C(=O)N1CC2(CC2)C[C@H]1c1ncc(-c2ccc3c(c2)C(F)(F)c2cc(-c4ccc5nc([C@@H]6[C@H]7CC[C@H](C7)N6C(=O)[C@@H](NC(=O)OC)C(C)C)[nH]c5c4)ccc2-3)[nH]1)C(C)C` [Ledipasvir-02]: in data set [2], the “dissolution behavior relative to other ledipasvir forms” value is “improved relative to all free base forms”.

As for `COC(=O)N[C@H](C(=O)N1CC2(CC2)C[C@H]1c1ncc(-c2ccc3c(c2)C(F)(F)c2cc(-c4ccc5nc([C@@H]6[C@H]7CC[C@H](C7)N6C(=O)[C@@H](NC(=O)OC)C(C)C)[nH]c5c4)ccc2-3)[nH]1)C(C)C` [Ledipasvir-03], in data set [1], the “intrinsic solubility (S0)” value was below 0.1 µg/mL. In data set [2], the “dissolution behavior relative to other ledipasvir forms” value is recorded as “slowest dissolution of all forms tested”.

In the case of `CC(C)OC(=O)[C@H](C)N[P@](=O)(OC[C@H]1O[C@@H](n2ccc(=O)[nH]c2=O)[C@](C)(F)[C@@H]1O)Oc1ccccc1` [Sofosbuvir, (S)-isopropyl 2-(((S)-(((2R,3R,4R,5R)-5-(2,4-dioxo-3,4-dihydropyrimidin-1(2H)-yl)-4-fluoro-3-hydroxy-4-methyltetrahydrofuran-2-yl)methoxy)(phenoxy)phosphoryl)amino)propanoate], in data set [3] (40° C./75% RH and 60° C./ambient humidity, two and four weeks), the “degradation in blend with the other active” value was “no degradation was observed”. Besides, the Strength was found to be 102.9% in data set [3] (45° C./75% RH, 0 weeks); 101.6% in data set [3] (45° C./75% RH, 2 weeks); 100.5% in data set [3] (45° C./75% RH, 4 weeks); 102.9% in data set [3] (60° C., 0 weeks); 102.4% in data set [3] (60° C., 1 week); 103.2% in data set [3] (60° C., 2 weeks). Besides, in data set [3] (60° C., 4 weeks), the Strength is given as 102.8%. The “Total Impurity Content” value was 0.4% in data set [3] (45° C./75% RH, 0 weeks); 0.3% in data set [3] (45° C./75% RH, 2 weeks); 0.2% in data set [3] (45° C./75% RH, 4 weeks); 0.4% in data set [3] (60° C., 0 weeks); 0.3% in data set [3] (60° C., 1 week); 0.3% in data set [3] (60° C., 2 weeks). Further, the “Total Impurity Content” value in data set [3] (60° C., 4 weeks) is recorded as 0.2%. The “% GMR (90% CI) [Moderate-Fat/Fasted] of AUCinf” value in data set [4] (Sofosbuvir/Ledipasvir Tablet) was 195 (176, 216) %. Also, the “% GMR (90% CI) [Moderate-Fat/Fasted] of AUClast” value in data set [4] (Sofosbuvir/Ledipasvir Tablet) is reported as 195 (176, 216) %. Moreover, the “% GMR (90% CI) [Moderate-Fat/Fasted] of Cmax” value in data set [4] (Sofosbuvir/Ledipasvir Tablet) was 126 (109, 147) %. Moreover, the “GMR (90% CI) [High-Fat/Fasted] of AUCinf” value in data set [4] (Sofosbuvir/Ledipasvir Tablet) is reported as 179 (162, 198) %. Further, the “GMR (90% CI) [High-Fat/Fasted] of AUClast” value in data set [4] (Sofosbuvir/Ledipasvir Tablet) was 178 (161, 198) %. In data set [4] (Sofosbuvir/Ledipasvir Tablet), the “GMR (90% CI) [High-Fat/Fasted] of Cmax” value is given as 115 (99.0, 134) %. The “median Tmax” value in data set [4] (sofosbuvir/ledipasvir composition, with food) worked out at 2.00 h. Also, in the data set with HCV (400 mg dose, mean major metabolite AUCtau), the “share of the maximal HCV RNA change from baseline achievable (Emax PK/PD model)” value is listed as “approximately 77%”. In addition, in the data set on HCV (400 mg once daily plus other HCV therapeutics, genotype 2 or 3 HCV infected patients), the SVR24 is 100%. For the same compound, the “% GMR of AUCinf” value is given as 297% in data set [5] (setting [8]) and 135% in data set [5] (SOF + Compound E vs SOF alone). The “% GMR of AUClast” value in data set [5] (setting [8]) was 301%; in data set [5] (SOF + Compound E vs SOF alone), 135%. For the same compound, the “% GMR of Cmax” value in data set [5] (setting [8]) worked out at 283%; in data set [5] (SOF + Compound E vs SOF alone) it was 130%. Also, the area under the curve AUC(0-inf) is 2560 ng·h/mL in data set [5] (SOF + Compound E + ledipasvir); 1150 ng·h/mL in data set [5] (setting [9]); 921 ng·h/mL in data set [5] (setting [10]); 1750 ng·h/mL in data set [6] (setting [12]); 794 ng·h/mL in data set [6] (in vivo, Sofosbuvir alone); 1520 ng·h/mL in “clinical” (Fasted). The values for the AUC(0-inf) in “clinical” (High-Calorie/High-Fat Meal) and in the data set “clinical” (Moderate-Fat Meal) were 2570 ng·h/mL and 2860 ng·h/mL, respectively. In addition, the AUC(0-t) in data set [5] (SOF + Compound E + ledipasvir) worked out at 2550 ng·h/mL; in data set [5] (setting [9]) it was 1140 ng·h/mL; in data set [5] (setting [10]) it was 908 ng·h/mL; in data set [6] (setting [12]), 1740 ng·h/mL; in data set [6] (in vivo, Sofosbuvir alone), 788 ng·h/mL; in the data set “clinical” (Fasted), 1520 ng·h/mL. In addition, the AUC(0-t) was 2550 ng·h/mL in “clinical” (High-Calorie/High-Fat Meal) and 2850 ng·h/mL in the data set “clinical” (Moderate-Fat Meal). For the same compound, the Cmax is 1260 ng/mL in data set [5] (SOF + Compound E + ledipasvir); 587 ng/mL in data set [5] (setting [9]); 515 ng/mL in data set [5] (setting [10]); 1870 ng/mL in data set [6] (setting [12]); 929 ng/mL in data set [6] (in vivo, Sofosbuvir alone); 1240 ng/mL in “clinical” (Fasted). Moreover, the results for the maximum concentration (Cmax) in the data set “clinical” (High-Calorie/High-Fat Meal) and in the data set “clinical” (Moderate-Fat Meal) were 1350 ng/mL and 1520 ng/mL, respectively. Besides, in data set [6] (DRM = sum of AUCs of analytes corrected for molecular weight), the “AUC with ledipasvir as share of total drug related material (DRM) AUC” value is reported as around 5.7%. Further, in data set [6] (setting [11]), the “% GMR (90% CI) of AUCinf” value is 229 (191, 276) %. Further, in data set [6] (setting [11]), the “% GMR (90% CI) of AUClast” value is recorded as 230 (191, 277) %. The “% GMR (90% CI) of Cmax” value in data set [6] (setting [11]) was 221 (176, 278) %. For the same compound, the “increase of plasma exposure by ledipasvir” value in data set [6] (in vivo) is around 2.3 fold. The time to peak (Tmax) in “clinical” was 1 h.
